Earlier results in patent US20220241165A1, “ORAL CARE COMPOSITIONS COMPRISING OXALIC ACID” (The Procter & Gamble Company, priority 2021, published 2022).

SMILES: O=C(O)C(=O)O [oxalate ion]
- pKa: 4.1
